Measurements published in ChEMBL document CHEMBL6182843, “Actinomycetes: Treasure trove for discovering novel antibiotic candidates” (2025).
Converted amounts (≈) assume the structure as drawn.

Legend:
Assay type in all cases: functional
Staphylococcus aureus [1] = test: Antimicrobial activity against Staphylococcus aureus ATCC 25913 assessed as reduction in bacterial growth by CLSI protocol based Mueller-Hinton broth micro-dilution method
Enterococcus faecalis = test: Antibacterial activity against Enterococcus faecalis ATCC 29212 assessed as reduction in microbial growth by CLSI protocol based Mueller-Hinton broth micro-dilution method
Bacillus subtilis [2] = test: Antibacterial activity Bacillus subtilis ATCC 49343 assessed as reduction in bacterial growth
Staphylococcus aureus [3] = test: Antibacterial activity Staphylococcus aureus ATCC 25923 assessed as reduction in bacterial growth
Escherichia coli [4] = test: Antibacterial activity Escherichia coli ATCC 8739 assessed as reduction in bacterial growth
Micrococcus luteus = test: Antibacterial activity against Micrococcus luteus ML01 assessed as reduction in bacterial growth incubated for 24 to 48 hrs by serial dilution method; details: time 24-48 hrs
Staphylococcus aureus [5] = test: Antibacterial activity against methicillin-Staphylococcus aureus ATCC 29213 assessed as reduction in bacterial growth by broth micro-dilution method
Kocuria rhizophila = test: Antimicrobial activity against Kocuria rhizophila ATCC 9341 assessed as reduction in microbial growth
Streptococcus suis = test: Antibacterial activity against Streptococcus suis SC19 assessed as reduction in bacterial growth by CLSI protocol based MHB micro-silution method
[6] = tested on: Erysipelothrix rhusiopathiae; test: Antibacterial activity against Erysipelothrix rhusiopathiae WH13013 assessed as reduction in bacterial growth by CLSI protocol based MHB micro-silution method
Staphylococcus aureus [7] = test: Antibacterial activity against Staphylococcus aureus ATCC 25923 assessed as reduction in bacterial growth by CLSI protocol based MHB micro-silution method
Staphylococcus aureus [8] = test: Antibacterial activity against methicillin-resistant Staphylococcus aureus MB5393 assessed as reduction in bacterial growth incubated for 18 to 20 hrs by broth micro-dilution method; details: time 18-20 hrs
Acinetobacter baumannii = test: Antibacterial activity against Acinetobacter baumannii ATCC 19606 assessed as reduction in microbial growth by CLSI protocol based broth micro-dilution method
Escherichia coli [9] = test: Antibacterial activity against Escherichia coli DH5a
Staphylococcus aureus [10] = test: Antibacterial activity against Staphylococcus aureus
Bacillus subtilis [11] = test: Antibacterial activity against Bacillus subtilis

## C[C@@H](O)[C@@H]1CC[C@H](c2ccc(O)c3c2C(=O)[C@@]24O[C@@]2([C@@H](C)O[C@@H]2CC(=O)O[C@@H]24)[C@H]3O)N1C
Staphylococcus aureus [1]
  MIC: 40 µg/mL (≈ 89.8 µM)
Enterococcus faecalis
  MIC: 40 µg/mL

## C=C(C)[C@@H]1CC[C@H](C)[C@H]2CC/C(C)=C/CC/C(C)=C/[C@H]21
Bacillus subtilis [2]
  MIC: 48.4 µg/mL (≈ 178 µM)
Staphylococcus aureus [3]
  MIC: 86.9 µg/mL (≈ 319 µM)
Escherichia coli [4]
  MIC: 133 µg/mL (≈ 488 µM)

## COC(=O)c1[nH]c(C(=O)O)c(-c2c[nH]c3c(Cl)cccc23)c1-c1c[nH]c2c(Cl)cccc12
Micrococcus luteus
  MIC: 16 µg/mL (≈ 34.2 µM)
Staphylococcus aureus [5]
  MIC: 3 µg/mL (≈ 6.41 µM)

## CC(C)C[C@H](NC(=O)/C=N/O)[C@@H](O)[C@@H](C)C(=O)O
Kocuria rhizophila
  MIC: 50 µg/mL

## O=C1NC(=O)C(c2c[nH]c3cc(Cl)c(Cl)cc23)=C1c1c[nH]c2ccc(Cl)cc12
Micrococcus luteus
  MIC: 0.5 µg/mL (≈ 1.16 µM)
Staphylococcus aureus [5]
  MIC: 1 µg/mL (≈ 2.32 µM)

## C[C@@H](O)[C@@H]1CC[C@H](c2ccc(O)c3c2C(=O)[C@]24O[C@]2([C@@H](C)O[C@@H]2CC(=O)O[C@@H]24)[C@H]3O)N1C
Staphylococcus aureus [1]
  MIC: 40 µg/mL (≈ 89.8 µM)
Enterococcus faecalis
  MIC: 40 µg/mL

## C[C@@H](O)Cc1cc(O)cc2c1C(=O)c1c(O)ccc(O)c1C2=O
Streptococcus suis
  MIC: 12.5 µg/mL (≈ 39.8 µM)
[6]
  MIC: 6.25 µg/mL (≈ 19.9 µM)
Staphylococcus aureus [7]
  MIC: 0.78 µg/mL (≈ 2.48 µM)

## CC[C@@H](/C=C/[C@@H]1C/C=C(\C)[C@@H](O)[C@@H](C)[C@H](O)C[C@@H](O)[C@@H](C)[C@H](O)C[C@@H]2C[C@H](O)[C@@H](O)[C@](O)(C[C@@H](O[C@H]3O[C@@H](C)[C@H](O)[C@@H](O[C@H]4C[C@H](N)[C@@H](O)[C@@H](C)O4)[C@@H]3O[C@H]3O[C@@H](C)[C@H](O)[C@@H](O)[C@@H]3O)[C@@H](C)/C=C/[C@@H](O)C[C@@H](O)[C@@H](C)/C=C/C(=O)O1)O2)[C@@H](O)[C@@H](C)[C@H](CC)O[C@H]1C[C@](C)(N)[C@H](O)[C@H](C)O1
Staphylococcus aureus [8]
  MIC: 1 µg/mL (≈ 0.702 µM)

## CC[C@@H](/C=C/[C@@H]1C/C=C(\C)[C@@H](O)[C@@H](C)[C@H](O[C@H]2O[C@H](CO)[C@H](O)[C@@H](O)[C@H]2O)C[C@@H](O)[C@@H](C)[C@H](O)C[C@@H]2C[C@H](O)[C@@H](O)[C@](O)(C[C@@H](O[C@H]3O[C@@H](C)[C@H](O)[C@@H](O[C@H]4C[C@H](N)[C@@H](O)[C@@H](C)O4)[C@@H]3O[C@H]3O[C@@H](C)[C@H](O)[C@@H](O)[C@@H]3O)[C@@H](C)/C=C/[C@@H](O)C[C@@H](O)[C@@H](C)/C=C/C(=O)O1)O2)[C@@H](O)[C@@H](C)[C@H](CC)O[C@H]1C[C@](C)(N)[C@H](O)[C@H](C)O1
Staphylococcus aureus [8]
  MIC: 2 µg/mL (≈ 1.26 µM)

## COc1cc(-c2ccccn2)nc(/C=N/O)c1S(C)(=O)=O
Acinetobacter baumannii
  MIC: 128 µg/mL

## COc1ccc(OC)c([C@@H](O)[C@@H](C)C(=O)c2ccc(OC)c(C(=O)O)c2O)c1
Escherichia coli [9]
  MIC: > 100 µg/mL
Staphylococcus aureus [10]
  MIC: 18 µg/mL (≈ 46.1 µM)
Bacillus subtilis [11]
  MIC: 10 µg/mL (≈ 25.6 µM)

## C=C(C)[C@@H]1CC[C@H](C)[C@H]2CC/C(C)=C/C[C@H](O)/C(C(=O)O)=C/[C@H]21
Bacillus subtilis [2]
  MIC: 1.1 µg/mL (≈ 3.45 µM)
Staphylococcus aureus [3]
  MIC: 49.7 µg/mL (≈ 156 µM)
Escherichia coli [4]
  MIC: 125 µg/mL (≈ 394 µM)
